The supplement of paper PMC11451515

Tested on: P12-Ichikawa
Assay: cell viability relative to DMSO control; higher = less cytotoxic
Conditions: 48 h
Method in brief: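 NOMO1, SEM and P12-Ichikawa leukemia cells spent at least four passages adapting to each medium before use. They were seeded at 500 cells/well (NOMO1, SEM) or 1000 cells/well (P12-Ichikawa) in 5 μl in 1536-well plates and pin-dosed with library compounds in DMSO at 11 threefold steps from 47 μM down to 0.79 nM. After 48 h at 37°C, CellTiter-Glo One luminescence was read. Viability is reported as a percentage of the DMSO wells on each plate, with cell-free wells as background.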

[1] = HPLM + 10% dialyzed FBS, 0.000781 µM
[2] = HPLM + 10% dialyzed FBS, 0.00234 µM
[3] = HPLM + 10% dialyzed FBS, 0.00702 µM
[4] = HPLM + 10% dialyzed FBS, 0.0211 µM
[5] = HPLM + 10% dialyzed FBS, 0.0632 µM
[6] = HPLM + 10% dialyzed FBS, 0.19 µM
[7] = HPLM + 10% dialyzed FBS, 0.569 µM
[8] = HPLM + 10% dialyzed FBS, 1.71 µM
[9] = HPLM + 10% dialyzed FBS, 5.12 µM
[10] = HPLM + 10% dialyzed FBS, 15.4 µM
[11] = HPLM + 10% dialyzed FBS, 46.1 µM
[12] = RPMI 5 mM glucose + 10% FBS, 0.000781 µM
[13] = RPMI 5 mM glucose + 10% FBS, 0.00234 µM
[14] = RPMI 5 mM glucose + 10% FBS, 0.00702 µM
[15] = RPMI 5 mM glucose + 10% FBS, 0.0211 µM
[16] = RPMI 5 mM glucose + 10% FBS, 0.0632 µM
[17] = RPMI 5 mM glucose + 10% FBS, 0.19 µM
[18] = RPMI 5 mM glucose + 10% FBS, 0.569 µM
[19] = RPMI 5 mM glucose + 10% FBS, 1.71 µM
[20] = RPMI 5 mM glucose + 10% FBS, 5.12 µM
[21] = RPMI 5 mM glucose + 10% FBS, 15.4 µM
[22] = RPMI 5 mM glucose + 10% FBS, 46.1 µM
[23] = RPMI 5 mM glucose + 10% dialyzed FBS, 0.000781 µM
[24] = RPMI 5 mM glucose + 10% dialyzed FBS, 0.00234 µM
[25] = RPMI 5 mM glucose + 10% dialyzed FBS, 0.00702 µM
[26] = RPMI 5 mM glucose + 10% dialyzed FBS, 0.0211 µM
[27] = RPMI 5 mM glucose + 10% dialyzed FBS, 0.0632 µM
[28] = RPMI 5 mM glucose + 10% dialyzed FBS, 0.19 µM
[29] = RPMI 5 mM glucose + 10% dialyzed FBS, 0.569 µM
[30] = RPMI 5 mM glucose + 10% dialyzed FBS, 1.71 µM
[31] = RPMI 5 mM glucose + 10% dialyzed FBS, 5.12 µM
[32] = RPMI 5 mM glucose + 10% dialyzed FBS, 15.4 µM
[33] = RPMI 5 mM glucose + 10% dialyzed FBS, 46.1 µM

| Compound | cell viability [1] [%] | cell viability [2] [%] | cell viability [3] [%] | cell viability [4] [%] | cell viability [5] [%] | cell viability [6] [%] | cell viability [7] [%] | cell viability [8] [%] | cell viability [9] [%] | cell viability [10] [%] | cell viability [11] [%] | cell viability [12] [%] | cell viability [13] [%] | cell viability [14] [%] | cell viability [15] [%] | cell viability [16] [%] | cell viability [17] [%] | cell viability [18] [%] | cell viability [19] [%] | cell viability [20] [%] | cell viability [21] [%] | cell viability [22] [%] | cell viability [23] [%] | cell viability [24] [%] | cell viability [25] [%] | cell viability [26] [%] | cell viability [27] [%] | cell viability [28] [%] | cell viability [29] [%] | cell viability [30] [%] | cell viability [31] [%] | cell viability [32] [%] | cell viability [33] [%] |
| --- | --- | --- | --- | --- | --- | --- | --- | --- | --- | --- | --- | --- | --- | --- | --- | --- | --- | --- | --- | --- | --- | --- | --- | --- | --- | --- | --- | --- | --- | --- | --- | --- | --- |
| CC(C)(O)CC(=O)NCCn1ccc2ncnc(Nc3ccc(Oc4cccc(C(F)(F)F)c4)c(Cl)c3)c21 | 120 | 115 | 116 | 112 | 111 | 109 | 108 | 102 | 87.2 | 69.5 | 60.7 | 110 | 107 | 121 | 114 | 121 | 105 | 107 | 111 | 93.3 | 75.6 | 52 | 104 | 113 | 117 | 109 | 115 | 113 | 110 | 106 | 95.8 | 69.1 | 47.4 |
| O=C(CCCN1CCN(c2ccc(F)cc2)CC1)NC1c2ccccc2CSc2ccccc21 (stereo unspecified) | 120 | 125 | 123 | 119 | 121 | 120 | 117 | 119 | 109 | 102 | 71.4 | 126 | 121 | 119 | 126 | 131 | 123 | 136 | 119 | 97.4 | 83.5 | 55.1 | 123 | 122 | 122 | 120 | 120 | 115 | 121 | 110 | 100 | 77.7 | 59 |
| Cc1coc2c1C(=O)C(=O)c1c-2ccc2c1CCCC2(C)C | 103 | 106 | 109 | 116 | 106 | 104 | 93 | 93.2 | 94 | 94.8 | 99.8 | 96.6 | 98.3 | 97.9 | 95.3 | 91 | 92.1 | 95.4 | 88.6 | 91.5 | 89.4 | 87.9 | 95.5 | 97.8 | 103 | 93.7 | 96.5 | 87.7 | 87.3 | 87.8 | 83.4 | 84.7 | 92.2 |
| CC1=CC(=CC(=C1C\C2=N\CCN2)C)C(C)(C)C | 102 | 105 | 105 | 106 | 105 | 124 | 107 | 116 | 106 | 104 | 102 | 99.5 | 105 | 105 | 114 | 118 | 113 | 111 | 114 | 99.3 | 86.4 | 90.2 | 91 | 96.4 | 98.1 | 100 | 105 | 92.9 | 103 | 102 | 97.9 | 91.4 | 84.1 |
| NC(=O)c1ccc(N(C(N)=O)c2c(F)cccc2F)nc1-c1ccc(F)cc1F | 101 | 101 | 105 | 101 | 107 | 102 | 106 | 101 | 108 | 95.3 | 104 | 101 | 97.1 | 100 | 98.7 | 108 | 94.7 | 109 | 95.6 | 98.5 | 88.7 | 96.3 | 94.9 | 96.1 | 99 | 102 | 100 | 92.1 | 91 | 92.7 | 91.2 | 87.5 | 88.6 |
| CNc1nc(Nc2cnn([C@H]3CCN(C4COC4)C[C@@H]3F)c2Cl)ncc1C(F)(F)F | 91 | 100 | 108 | 108 | 102 | 92.9 | 98.5 | 53.3 | 24.9 | 30 | 28 | 93.9 | 106 | 99.6 | 106 | 115 | 112 | 115 | 99.1 | 54 | 22.2 | 39.2 | 100 | 103 | 110 | 120 | 115 | 111 | 114 | 93.1 | 54.3 | 34.8 | 38.1 |
| CN1CCCN(CC1)C2=CC=C3C(=O)\C(=C/4SC5=C(C=CC=C5)N4C3=N2)C(=O)NCC6=CN=C(C)C=N6 | 114 | 108 | 119 | 108 | 110 | 113 | 108 | 103 | 92.3 | 92.4 | 84.6 | 113 | 124 | 122 | 109 | 117 | 108 | 95.9 | 101 | 83.3 | 81.8 | 54.1 | 103 | 114 | 117 | 108 | 107 | 104 | 94.5 | 92.1 | 85.8 | 82.2 | 59.6 |
| O=C(O)c1cccnc1Nc1cccc(C(F)(F)F)c1 | 112 | 111 | 111 | 118 | 119 | 128 | 112 | 131 | 129 | 129 | 124 | 115 | 117 | 113 | 120 | 124 | 143 | 129 | 132 | 141 | 138 | 108 | 104 | 108 | 115 | 112 | 112 | 119 | 115 | 113 | 121 | 131 | 117 |
| CNCC[C@H](Oc1cccc2ccccc12)c1cccs1 | 109 | 116 | 111 | 113 | 109 | 96.2 | 112 | 108 | 105 | 95.8 | 25.1 | 126 | 119 | 124 | 120 | 121 | 119 | 112 | 118 | 119 | 111 | 81 | 107 | 115 | 112 | 119 | 105 | 116 | 111 | 105 | 105 | 98.6 | 58 |
| C[C@@H]1CCO[C@H]2CN\3/C=C(/C(=O)NCC4=C(F)C=C(F)C=C4)C(=O)\C(=C3C(=O)N12)O | 108 | 109 | 103 | 109 | 106 | 105 | 103 | 96.5 | 103 | 104 | 93.5 | 99.3 | 99.5 | 106 | 105 | 101 | 104 | 111 | 96.3 | 93.9 | 91.9 | 74 | 105 | 97.1 | 103 | 97.9 | 101 | 95.6 | 98.7 | 93.6 | 97.7 | 86.5 | 82.1 |
| COc1ccc(C(=O)CC2(O)C(=O)Nc3c(Cl)ccc(Cl)c32)cc1 (stereo unspecified) | 102 | 114 | 114 | 114 | 117 | 124 | 120 | 106 | 55 | 19.6 | 14.5 | 107 | 104 | 117 | 109 | 116 | 125 | 118 | 106 | 55.8 | 14.1 | 12.9 | 98.9 | 116 | 126 | 115 | 120 | 128 | 122 | 105 | 81.9 | 25.4 | 27.5 |
| CC(C(=O)O)c1ccc2c(c1)CC(=O)c1ccccc1S2 (stereo unspecified) | 104 | 108 | 107 | 110 | 118 | 106 | 115 | 101 | 111 | 37.5 | 25.1 | 99.3 | 117 | 101 | 104 | 116 | 115 | 118 | 109 | 106 | 24 | 18.8 | 102 | 101 | 101 | 99.2 | 99.5 | 107 | 104 | 109 | 104 | 31.7 | 21.2 |
| CNC(=O)c1ccc(Nc2cc(Nc3ccccc3[S+](=O)([O-])C(C)C)c3cc[nH]c3n2)nc1 | 98.8 | 104 | 107 | 100 | 110 | 111 | 113 | 89.8 | 12.5 | 10.6 | 22.3 | 108 | 108 | 105 | 115 | 105 | 113 | 98.1 | 66.7 | 14.7 | 12.6 | 19.2 | 109 | 105 | 111 | 105 | 116 | 118 | 107 | 83.5 | 26.7 | 28.2 | 29.6 |
| NC[C@H]1O[C@H](O[C@@H]2[C@H](O)[C@@H](O[C@H]3O[C@H](CO)[C@@H](O)[C@H](N)[C@H]3O)[C@H](N)C[C@@H]2N)[C@H](O)[C@@H](O)[C@@H]1O | 126 | 124 | 124 | 107 | 120 | 121 | 117 | 121 | 112 | 104 | 107 |  |  |  |  |  |  |  |  |  |  |  |  |  |  |  |  |  |  |  |  |  |  |
| COc1cc[nH]c2ncc(C(=O)C(=O)N3CCN(C(=O)c4ccccc4)C[C@H]3C)c1-2 | 114 | 112 | 118 | 111 | 112 | 109 | 108 | 101 | 106 | 103 | 102 | 114 | 118 | 119 | 117 | 117 | 117 | 122 | 111 | 107 | 111 | 97.5 | 105 | 109 | 96.9 | 110 | 101 | 99.1 | 116 | 103 | 99.4 | 99.5 | 103 |
| Cc1cccc(Nc2ccncc2[S+](=O)([O-])NC(=O)NC(C)C)c1 | 102 | 97.6 | 100 | 93.8 | 101 | 96.7 | 93 | 90 | 91.3 | 85.8 | 83.1 | 94.9 | 95.5 | 95.4 | 94.2 | 104 | 104 | 98.2 | 94.1 | 96.8 | 86.4 | 86.6 | 86.1 | 89.3 | 93.1 | 90 | 91.9 | 97.2 | 90 | 87.3 | 88 | 85.5 | 76.1 |
